Assay results reported in US10987324B2, “Methods and compositions for the treatment of seizure-related disorders” (Adamas Pharmaceuticals, Inc., priority 2015, dated 2021).

Columns and labels:
[1] = Brivaracetam plasma pharmacokinetics, ER infusion vs IP bolus in rats (Example 16); type: in vivo; conditions: PK satellite rats
Method: To reproduce the plasma profile of ER brivaracetam (ER profile, group 2), rats are administered brivaracetam as a continuous infusion into the intraperitoneal (IP) space. […] Control animals (group 1) are infused with vehicle using the same infusion protocol. […] Control animals (group 3) were implanted with pumps containing vehicle and were given an IP bolus of vehicle.
In order to fully elucidate the plasma concentration-time profile of brivaracetam administered by the ER and IR protocols, two groups of PK satellite rats are administered brivaracetam using identical protocols to groups 2 and 4 above to reproduce the ER and IR profiles, respectively. Blood is collected at varying time points and the plasma brivaracetam concentrations are determined. No rotarod testing is performed on the PK satellite rats.

[2] = tested on: motor coordination in rats; assay: Rotarod, ER profile vs IR profile of brivaracetam in rats (Example 16); type: in vivo
Method: The primary objective of this study is to compare the CNS side effects of brivaracetam when delivered as a continuous infusion to rats to simulate an extended release (ER) plasma profile or as a bolus to simulate an immediate release (IR) plasma profile. It is hypothesized that reducing the rate of rise of plasma concentrations with the ER profile compared to the IR profile results in reduced CNS impairment. CNS side effects are measured as an impairment of motor coordination in rodents using the rotarod. The rotarod (Ugo Basile, Italy) is a device that allows for quantitative measurement of motor coordination in rodents. Animals experiencing CNS side effects such as dizziness would fall off the rotarod faster than normal animals.
An acceleration protocol is used for training and test sessions, wherein the rotarod is accelerated from 0-40 rpm over a 5 minute session. All rats are then surgically implanted subcutaneously with programmable pumps (iPRECIO, Durect Corporation, Cupertino, Calif.), per the manufacturer's instructions, under anesthesia and using aseptic techniques.
Three days following pump implantation surgery, all rats are tested on the rotarod to obtain baseline performance values. […]
Animals that stay on the rotarod for the entire session are assigned a run-time of 300 seconds. The time that each animal stays on the rotarod prior to falling is automatically recorded. […]

[3] = cited from earlier work

## CCC[C@@H]1CC(=O)N([C@@H](CC)C(N)=O)C1 [brivaracetam, (2S)-2-[(4R)-2-oxo-4-propylpyrrolidin-1-yl]butanamide]
[1]
  rate of rise of plasma concentration, ER profile as % of IR profile: < 10%
[2]; ER profile
  change from baseline in time on the rotarod vs vehicle: not different between brivaracetam treated and vehicle animals
[2]; IR profile, IP bolus
  change in time on the rotarod vs vehicle: greater reduction in time on the rotarod than matched vehicle controls
[3]; human
  elimination / plasma / pharmacokinetic half-life: 7 to 8 h
[3]; in vivo
  fraction of dose unchanged in urine: 5-8%
[3]; oral dosing, human
  Tmax: approximately 2 hours
